Experiment: Human HepG2 cell viability assay in 384 well format
Format: toxicity, cell-based
Parameters: dose 125 nL, time 70.5 hour; cytotoxicity at 70.5 h: concentration not given beside the values
Settings: HepG2 cells, read-out: Inhibition

SMILES | cytotoxicity at 70.5 h [%]
C[C@@H]1CN(Cc2nc(Cc3ccccc3F)no2)C[C@H](C)O1 | 32.5
CCN(CCOC)C(=O)c1cc(COc2ccc3c(c2)CCCC3)on1 | -3.35
Cc1ccccc1C(CC(=O)NCC(N)=O)c1ccccc1 (configuration not stated) | -5.12
COCCC(=O)N1CCCC(CCC(=O)NCc2ccccc2F)C1 (configuration not stated) | -6.55
CCOC(=O)c1coc(N2CCC(C(C)N3CCCC3)CC2)n1 (configuration not stated) | -1.58
CCC[C@H]1CN(CCS(C)(=O)=O)C[C@@H]1NC(=O)c1cc(CC)on1 | -2.15
CN(C)Cc1nnc(C2CCCN(c3cc(C(F)(F)F)ccn3)C2)n1C (configuration not stated) | -11.1
Cc1ccc(CN2CCN(C3CCCC3)CC2CCO)o1 (configuration not stated) | 8.76
CC1(C)CN(Cc2nnc(-c3cccnc3)o2)CC[C@]1(C)O | 8.67
CCC(C)(C)c1cc(-c2c(C)nn(CCO)c2C)c(C#N)c(N)n1 | 12.5
CN(C(=O)CCc1cccs1)C1CCCN(C2Cc3ccccc3C2)C1 (configuration not stated) | -1.24
Cc1cnn(C(C)C2CC2)c1NC(=O)c1ncccc1O (configuration not stated) | 9.8
CCOC(=O)N1CCC(Nc2cc(CC)nc3c(C)c(C)nn23)CC1 | -4.43
CNc1ncccc1C(=O)N1CCCC2(C1)C(=O)N(C)c1ccccc12 (configuration not stated) | -7.64
O=C(O)c1cccnc1CN1CCCCC1CCc1cccc(O)c1 (configuration not stated) | 9.13
COCCN(Cc1cccc(O)c1)Cc1ccccc1F | 1.04
Cc1nc(NC(=O)N(C)Cc2ccsc2)nn1C | -7.49
CCC1CN(C(=O)c2ccccc2C(C)=O)CCN1C(C)C (configuration not stated) | -4.04
CN(Cc1ccc(CCC(C)(C)O)cc1)Cc1cccc(O)c1 | -8.03
COc1cc(N(C)CCC(O)c2ccccc2)ncn1 (configuration not stated) | -3.53
CCCNC(=O)C(C)Oc1ccccc1 (configuration not stated) | -5.34
Cc1cnc(C(=O)N[C@H]2CN(CCS(C)(=O)=O)C[C@@H]2C2CC2)cn1 | 12.4
COc1ccc2c(c1)OCC(CNC(=O)CCc1c(C)n[nH]c1C)C2 (configuration not stated) | -1.4

SMILES | cytotoxicity at 70.5 h [%]
C[C@@H]1CN(c2nc3c(cc2C(N)=O)CCC3)C[C@]1(C)O | -15
CN(C)CCC(Nc1nc(N)nc2c1CCNCC2)c1ccccc1 (configuration not stated) | -8.45
Cc1cc(C)nc(N2CCN(C(=O)c3ccc(C4CCCO4)s3)CC2)n1 (configuration not stated) | -11.5
Cc1nn(C)c(C)c1CCC(=O)N(C)Cc1ccc2nsnc2c1 | -4.18
Cc1nn(C)c(C)c1-c1c(-c2ccccc2)ncn1[C@H](CO)C(=O)O | -4.59
CN(C)c1nc2c(c(N3CCC4(CCCNC4=O)C3)n1)CCCC2 (configuration not stated) | 8.69
CCS(=O)(=O)CCNc1nc(C2CCCC2)nc2c1cnn2C | -6.16
COCCCC1(C(=O)O)CCCN(Cc2cc3c(cc2C)OCCO3)C1 (configuration not stated) | -8.65
c1cc(-c2n[nH]c(CNc3nnc(C4CC4)o3)n2)ccn1 | 0.716
O=C1CC[C@H]2CN(Cc3cccnc3)CC[C@H]2N1CCc1c[nH]cn1 | -1.83
Cc1csc(N2CCCN(C3Cc4ccccc4C3)CC2)n1 | -15.6
Cc1nc(C2CCNCC2)cc(N(C)Cc2cc3cc(F)ccc3[nH]2)n1 | -1.29
COc1ncc(-c2cc(NCCN(C)C)nc3[nH]ccc23)c(OC)n1 | 15.3
Cc1[nH]c2c(F)cccc2c1CC(=O)NCCCc1csc(N)n1 | 5.37
CC(C)c1cc(C2CCN(Cc3cc(F)cc(F)c3)CC2)[nH]n1 | -1.12
COCC(=O)N1C[C@H]2CNC[C@@]2(C(=O)NCc2snnc2C)C1 | -6.27
CC(C)[C@H]1CN(Cc2ccccn2)C[C@@H]1NC(=O)CC1CCC1 | -3.45
CC(C)(O)CCc1ccc(C(=O)N2CCN(CCS(C)(=O)=O)CC2)cc1 | 0.886
COCC(=O)N1CC[C@]2(O)CCN(Cc3ccsc3)C[C@@H]2C1 | -7.01
CCSCCNc1nc2c(s1)c(C)nn2C | -14.5
Cc1ccc2nc(CN(C)Cc3[nH]nc4c3CCC4)[nH]c2c1C | 6.49
Cc1cnc(N)nc1NCCSCc1[nH]cnc1C | -1.94
CN1CCC(Cc2noc(-c3cccc(Oc4ncccn4)c3)n2)CC1 | -2

SMILES | cytotoxicity at 70.5 h [%]
CCC1(CO)CCN(C(=O)c2cc(COc3ccccc3F)[nH]n2)CC1 | 15.1
CN(CCO)Cc1nnc(C2CCN(C(=O)CN3CCCC3)CC2)n1C | -0.947
Nc1ncccc1CN1C[C@@H](C(=O)O)[C@H](c2cccc(F)c2)C1 | 1.75
N#Cc1cccnc1N1CCN(S(=O)(=O)NCc2ccccc2)CC1 | -18.9
Cc1ccc(-c2ccnc(NCC3(N(C)C)CCOCC3)n2)c(C)n1 | -4
CN(C)CCN1CC2(CCCN(c3ncc(Cl)cc3F)C2)CCC1=O (configuration not stated) | -5.68
CCCN1CCCC2(CCN(Cc3cncn3C3CCCCC3)C2)C1=O (configuration not stated) | -7.64
Cc1ccc(NC2(C(=O)NCCCc3c(C)n[nH]c3C)CCCC2)cc1 | -5.19
CC(=O)c1ccc(N2CCC3(CC2)CC(=O)N(C)C3)nc1 | 4.13
Cc1nc(N)nc(C)c1CC(=O)NCc1ccc2nonc2c1 | -9.8
Cc1ncsc1CCN(C)C(=O)CN1CCCCC1=O | 12.5
O=C(CCC(=O)N1CCC(OCc2cccnc2)CC1)c1ccccc1 | -1.13
COc1ccc(C(=O)N2C[C@@H](CN3CCCCC3)[C@@H](CO)C2)cc1Cl | -1.81
CSc1ccc2cc(CN(C)CCO)c(=O)[nH]c2c1 | -16.3
COc1cc(OC)cc(-c2cccc3c2OC(CN)C3)c1 (configuration not stated) | 24.7
O=C(c1ccccc1)N1CCN(CC2CCOc3ccccc3C2)CC1 (configuration not stated) | -2.76
CCC(c1nc(C(C)C)nn1-c1ccncc1C)n1cccn1 (configuration not stated) | -9.34
CN(C)c1ccc(C(=O)N2C[C@@H](CN3CCCCC3)[C@@H](CO)C2)cc1 | -4.9
Cc1cccc(C(C(=O)NCc2csc(-c3ncccn3)n2)N(C)C)c1 (configuration not stated) | -0.325
O=C1OCCN1Cc1ncnn1Cc1c(F)cccc1Cl | 11.9
Cc1ncc(C(=O)N2CCCN(Cc3ccccc3F)CC2)c(O)n1 | -12.9
Cc1ccc(OCC2CCCN(C(=O)CN3CCOCC3)C2)cc1 (configuration not stated) | 2.89
CNc1ncc(CN(C)C(=O)c2cccc(Cn3cccn3)c2)cn1 | -6.97

SMILES | cytotoxicity at 70.5 h [%]
COc1cc(N2CCC(c3nccn3Cc3cccnc3)CC2)ncn1 | -5.38
Cc1ccc(-c2nccn2-c2ccc(OC3CCN(C)CC3)cc2)o1 | 17
CCCC(Nc1nc(COCC)nc2c1CCNCC2)c1nccn1C (configuration not stated) | 2.1
COc1ccc(-n2nc(C3CC3)nc2CCn2cnnn2)cc1 | 26.8
O=C(CCOc1ccccc1)N1CCCC(c2ncc[nH]2)C1 (configuration not stated) | -20.2
Cn1ccnc1CN(CCO)C(=O)c1cnc2ccccc2c1 | 0.182
CC[C@@]1(O)CCN(C(=O)c2ccc(OC(F)F)cc2)C[C@H]1O | -4.22
CC(=O)NCC1CCC2(CCN(c3nccc(C4CCCC4)n3)CC2)O1 (configuration not stated) | -7.84
CCN(Cc1cnn(CC)c1)C(=O)Cn1c(=O)ccc2ccccc21 | -5.92
O=C1CC2(CCN(C(=O)c3ccc4c(c3)CCCO4)C2)C(=O)N1 (configuration not stated) | 2.37
Cc1cc(C)c2nc(CN3CCC(N4CCOCC4)CC3)cc(O)c2c1 | -0.693
NC(=O)c1csc(N2C[C@@H](CN3CCOCC3)[C@@H](CO)C2)n1 | -2.9
O=C(CCNc1ncc2c(n1)CCN2c1ccccc1)N1CCCC1 | -9.59
O=C(NCc1nc(C2CCCCC2)no1)C1CC(=O)N(C2CCCC2)C1 (configuration not stated) | -0.128
COc1ccccc1Oc1ncccc1CNC(=O)C1(C)CCCNC1 (configuration not stated) | -1.4
CCc1ccccc1OC1CN(CC2CCOC2)C1 (configuration not stated) | 29.4
CCOCc1nc2c(c(NCc3cc(C)on3)n1)CCN(C(C)=O)CC2 | -7.96
CSc1cccc(CNC(=O)[C@H]2CNC[C@H](C(=O)N3CCOCC3)C2)c1 | -2.2
COCCOC(=O)N1C[C@H]2CC[C@@H]1CN(C1Cc3ccccc3C1)C2 | -3.17
Fc1cccc(C2(CNC3CCCNC3)CCOCC2)c1 (configuration not stated) | -1.46
CS(=O)(=O)N1CCCCC1CCc1ccc(O)cc1 (configuration not stated) | 16.6
C[C@@H]1CN(CC(C)(C)N2CCOCC2)C[C@@]1(O)C1CC1 | -6.35
CC(C1CCN(Cc2ccc(OC(F)F)cc2)CC1)N1CCOCC1 (configuration not stated) | -17.4

SMILES | cytotoxicity at 70.5 h [%]
COc1ccc(NC(=O)N2CCC3(CC2)NC(=O)CC3C(=O)O)c(C)c1 (configuration not stated) | -1.09
Cc1ccsc1-c1nccn1CCN1CCCCC1CO (configuration not stated) | -4.24
COc1cccc2ccc(N3CCC(O)(C(=O)O)CC3)nc12 | -16.9
Cc1nc(-c2ccncc2)ncc1C(C)NC(=O)CN1CCCCC1 (configuration not stated) | -7.41
CCCNC(=O)N1CCc2ccc(S(=O)(=O)N3CCOCC3)cc2C1 | -16.2
Cn1ncc(CN2CCc3onc(-c4cccc(F)c4)c3C2)c1C1CC1 | -11.6
CCCn1cnnc1CNC(=O)C1COc2c(cccc2OC)C1 (configuration not stated) | -11.4
COc1cc(-c2nc3c([nH]2)CCCNC3=O)cc(OC)c1OC | -1.49
Cc1nc(NC(=O)NC2CC(=O)N(C)C2)nn1C (configuration not stated) | 7.5
C[C@@H]1CN(C(=O)CCCN2CCCC2)CC[C@@]1(O)C1CCOCC1 | -3.8
CC(C)CN(Cc1ccc(O)c(C(=O)O)c1)Cc1cnn(C)c1 | -1.34
CN(Cc1nncn1-c1cccc(C(F)(F)F)c1)S(C)(=O)=O | 7.25
CC(=O)NCCCC(=O)N1CCC(Sc2cccc(C)c2)CC1 | -12.1
O=S1(=O)C[C@@H]2[C@H](C1)N(Cc1ccc3ccccc3c1)CCN2CC1CC1 | 2.29
Cc1nc(NCCC23CCCN2CCC3)cc(C2CCCNC2)n1 (configuration not stated) | -3.41
CC(=O)N(C)c1nc(CN2CCCC2Cn2cncn2)cs1 (configuration not stated) | -2.86
CCc1nccn1C1CCCN(C(=O)c2ccc3nnc(C)n3c2)C1 (configuration not stated) | -2.12
CN1CCN(C2CCN(Cc3nc(-c4ccoc4)no3)CC2)C1=O | -6.16
Cc1ccc(CC(=O)Nc2cc(C(C)C)n[nH]2)cn1 | 24.6
COc1ccc(-c2noc(CN3CC(n4cc(C)cn4)C3)n2)cc1 | -11.2
